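Where inhibition never reached the appropriate level, the endpoint shown equals the highest concentration tested. Otherwise, values were interpolated linearly from a five-concentration, 48-hour dose response in 96-well plates. The concentration for 50% growth inhibition is given as GI50. The concentration for full growth arrest is given as TGI.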
Tests used:
Experiment in all cases: inhibition of tumour cell growth, NCI panel, 48 h
786-0 renal = system: 786-0 renal
A498 renal = system: A498 renal
A549 NSCLC = system: A549 NSCLC
ACHN renal = system: ACHN renal
BT-549 breast = system: BT-549 breast
CAKI-1 renal = system: CAKI-1 renal
CCRF-CEM leukemia = system: CCRF-CEM leukemia
COLO 205 colon = system: COLO 205 colon
DU-145 prostate = system: DU-145 prostate
EKVX NSCLC = system: EKVX NSCLC
HCC-2998 colon = system: HCC-2998 colon
HCT-116 colon = system: HCT-116 colon
HCT-15 colon = system: HCT-15 colon
HL-60(TB) leukemia = system: HL-60(TB) leukemia
HOP-62 NSCLC = system: HOP-62 NSCLC
HOP-92 NSCLC = system: HOP-92 NSCLC
HS 578T breast = system: HS 578T breast
HT29 colon = system: HT29 colon
IGROV1 ovarian = system: IGROV1 ovarian
K-562 leukemia = system: K-562 leukemia
KM12 colon = system: KM12 colon
LOX IMVI melanoma = system: LOX IMVI melanoma
M14 melanoma = system: M14 melanoma
MALME-3M melanoma = system: MALME-3M melanoma
MCF7 breast = system: MCF7 breast
MDA-MB-231 breast = system: MDA-MB-231 breast
MDA-MB-435 = system: MDA-MB-435
MOLT-4 leukemia = system: MOLT-4 leukemia
NCI-H226 lung = system: NCI-H226 lung
NCI-H23 lung = system: NCI-H23 lung
NCI-H460 lung = system: NCI-H460 lung
NCI-H522 lung = system: NCI-H522 lung
NCI/ADR-RES ovarian = system: NCI/ADR-RES ovarian
OVCAR-3 ovarian = system: OVCAR-3 ovarian
OVCAR-4 ovarian = system: OVCAR-4 ovarian
OVCAR-5 ovarian = system: OVCAR-5 ovarian
OVCAR-8 ovarian = system: OVCAR-8 ovarian
PC-3 prostate = system: PC-3 prostate
RPMI-8226 leukemia = system: RPMI-8226 leukemia
RXF 393 renal = system: RXF 393 renal
SF-268 CNS = system: SF-268 CNS
SF-295 CNS = system: SF-295 CNS
SF-539 CNS = system: SF-539 CNS
SK-MEL-2 melanoma = system: SK-MEL-2 melanoma
SK-MEL-28 melanoma = system: SK-MEL-28 melanoma
SK-MEL-5 melanoma = system: SK-MEL-5 melanoma
SK-OV-3 ovarian = system: SK-OV-3 ovarian
SN12C renal = system: SN12C renal
SNB-19 CNS = system: SNB-19 CNS
SNB-75 CNS = system: SNB-75 CNS
SR leukemia = system: SR leukemia
SW-620 colon = system: SW-620 colon
T-47D breast = system: T-47D breast
U251 CNS = system: U251 CNS
UACC-257 melanoma = system: UACC-257 melanoma
UACC-62 melanoma = system: UACC-62 melanoma
UO-31 renal = system: UO-31 renal

SMILES: CC(C)(c1ccccc1)c1cc(O)c(C(C)(C)c2ccccc2)cc1O
- GI50 (786-0 renal): 2.67 µM
- TGI (786-0 renal): 9.38 µM
- GI50 (A498 renal): 2.16 µM
- TGI (A498 renal): 10.1 µM
- GI50 (A549 NSCLC): 2.77 µM
- TGI (A549 NSCLC): 13.4 µM
- GI50 (ACHN renal): 2.7 µM
- TGI (ACHN renal): 12.2 µM
- GI50 (BT-549 breast): 1.57 µM
- TGI (BT-549 breast): 5.31 µM
- GI50 (CAKI-1 renal): 1.71 µM
- TGI (CAKI-1 renal): 11.4 µM
- GI50 (CCRF-CEM leukemia): 3 µM
- TGI (CCRF-CEM leukemia): 13.6 µM
- GI50 (COLO 205 colon): 1.66 µM
- TGI (COLO 205 colon): 3.4 µM
- GI50 (DU-145 prostate): 3.83 µM
- TGI (DU-145 prostate): 16.2 µM
- GI50 (EKVX NSCLC): 1.94 µM
- TGI (EKVX NSCLC): 12.5 µM
- GI50 (HCC-2998 colon): 2.98 µM
- TGI (HCC-2998 colon): 12.8 µM
- GI50 (HCT-116 colon): 1.35 µM
- TGI (HCT-116 colon): 3.36 µM
- GI50 (HCT-15 colon): 2.35 µM
- TGI (HCT-15 colon): 10.1 µM
- GI50 (HL-60(TB) leukemia): 1.84 µM
- TGI (HL-60(TB) leukemia): 5.53 µM
- GI50 (HOP-62 NSCLC): 3.06 µM
- TGI (HOP-62 NSCLC): 13.4 µM
- GI50 (HOP-92 NSCLC): 1.75 µM
- TGI (HOP-92 NSCLC): 6.66 µM
- GI50 (HS 578T breast): 3.19 µM
- TGI (HS 578T breast): 19.6 µM
- GI50 (HT29 colon): 1.64 µM
- TGI (HT29 colon): 8.91 µM
- GI50 (IGROV1 ovarian): 2.7 µM
- TGI (IGROV1 ovarian): 13.3 µM
- GI50 (K-562 leukemia): 1.85 µM
- TGI (K-562 leukemia): 12.2 µM
- GI50 (KM12 colon): 1.96 µM
- TGI (KM12 colon): 10.8 µM
- GI50 (LOX IMVI melanoma): 1.54 µM
- TGI (LOX IMVI melanoma): 3.82 µM
- GI50 (M14 melanoma): 1.82 µM
- TGI (M14 melanoma): 4.99 µM
- GI50 (MALME-3M melanoma): 2.32 µM
- TGI (MALME-3M melanoma): 12.3 µM
- GI50 (MCF7 breast): 2.1 µM
- TGI (MCF7 breast): 11.2 µM
- GI50 (MDA-MB-231 breast): 1.43 µM
- TGI (MDA-MB-231 breast): 6.28 µM
- GI50 (MDA-MB-435): 1.43 µM
- TGI (MDA-MB-435): 8.85 µM
- GI50 (MOLT-4 leukemia): 1.72 µM
- TGI (MOLT-4 leukemia): 7.82 µM
- GI50 (NCI-H226 lung): 1.09 µM
- TGI (NCI-H226 lung): 16 µM
- GI50 (NCI-H23 lung): 2.27 µM
- TGI (NCI-H23 lung): 16.2 µM
- GI50 (NCI-H460 lung): 2.23 µM
- TGI (NCI-H460 lung): 7.53 µM
- GI50 (NCI-H522 lung): 3.67 µM
- TGI (NCI-H522 lung): 16.7 µM
- GI50 (NCI/ADR-RES ovarian): 2.7 µM
- TGI (NCI/ADR-RES ovarian): 12.1 µM
- GI50 (OVCAR-3 ovarian): 2.53 µM
- TGI (OVCAR-3 ovarian): 8 µM
- GI50 (OVCAR-4 ovarian): 1.26 µM
- TGI (OVCAR-4 ovarian): 9.92 µM
- GI50 (OVCAR-5 ovarian): 2.63 µM
- TGI (OVCAR-5 ovarian): 8.58 µM
- GI50 (OVCAR-8 ovarian): 3.75 µM
- TGI (OVCAR-8 ovarian): 20.9 µM
- GI50 (PC-3 prostate): 1.96 µM
- TGI (PC-3 prostate): 10.9 µM
- GI50 (RPMI-8226 leukemia): 1.37 µM
- TGI (RPMI-8226 leukemia): 14.3 µM
- GI50 (RXF 393 renal): 1.83 µM
- TGI (RXF 393 renal): 6.85 µM
- GI50 (SF-268 CNS): 2.99 µM
- TGI (SF-268 CNS): 12.8 µM
- GI50 (SF-295 CNS): 1.33 µM
- TGI (SF-295 CNS): 3.23 µM
- GI50 (SF-539 CNS): 2.73 µM
- TGI (SF-539 CNS): 9.59 µM
- GI50 (SK-MEL-2 melanoma): 2.96 µM
- TGI (SK-MEL-2 melanoma): 13.9 µM
- GI50 (SK-MEL-28 melanoma): 2.81 µM
- TGI (SK-MEL-28 melanoma): 14 µM
- GI50 (SK-MEL-5 melanoma): 1.02 µM
- TGI (SK-MEL-5 melanoma): 2.65 µM
- GI50 (SK-OV-3 ovarian): 3.55 µM
- TGI (SK-OV-3 ovarian): 14.5 µM
- GI50 (SN12C renal): 2.46 µM
- TGI (SN12C renal): 11.5 µM
- GI50 (SNB-19 CNS): 2.91 µM
- TGI (SNB-19 CNS): 12.1 µM
- GI50 (SNB-75 CNS): 1.51 µM
- TGI (SNB-75 CNS): 11.5 µM
- GI50 (SR leukemia): 3 µM
- TGI (SR leukemia): 9.86 µM
- GI50 (SW-620 colon): 2.77 µM
- TGI (SW-620 colon): 14.6 µM
- GI50 (T-47D breast): 1.81 µM
- TGI (T-47D breast): 12.7 µM
- GI50 (U251 CNS): 2.14 µM
- TGI (U251 CNS): 9.97 µM
- GI50 (UACC-257 melanoma): 2.1 µM
- TGI (UACC-257 melanoma): 10.7 µM
- GI50 (UACC-62 melanoma): 1.71 µM
- TGI (UACC-62 melanoma): 4.93 µM
- GI50 (UO-31 renal): 2.1 µM
- TGI (UO-31 renal): 11.3 µM
